Data published in US20070066601A1, “Combination of a serotonin reuptake inhibitor and a histamine 3 receptor antagonist, inverse agonist or partial agonist” (H. LUNDBECK A/S, priority 2003, published 2007).

Tests used:
cortex synaptosomes = conditions: cited from earlier work
[1] = test system: serotonin levels in ventral hippocampus; experiment: Microdialysis of brain serotonin levels in rats; assay type: in vivo, rat; conditions: for effect on 5-HT levels when compared to citalopram administration alone: P<0.0001
Description: Male albino rats of a Wistar-derived strain (285-320 g; Harlan, Zeist, The Netherlands) were used for the experiments. Upon surgery, rats were housed individually in plastic cages (35×35×40 cm), and had free access to food and water. Animals were kept on a 12 h light schedule (light on 7:00 a.m.). The experiments are concordant with the declarations of Helsinki and were approved by the animal care committee of the faculty of mathematics and natural science of the University of Groningen.
Microdialysis of brain serotonin levels was performed using home made I-shaped probes, made of polyacrylonitrile/sodium methyl sulfonate copolymer dialysis fiber (i.d. 220 μm, o.d. 300 μm, AN 69, Hospal, Italy). Preceding surgery rats were anaesthetised using isoflurane (O2/N2O; 300/300 ml/min). Lidocaine-HCl, 10 % (m/v) was used for local anaesthesia. Rats were placed in a stereotaxic frame (Kopf, USA), and probes were inserted into Ventral Hippcampus (V. Hippo, L +4.8 mm, […], V: −8.0 mm) and median prefrontal cortex (PFC, L −0.9 mm; AP: +3.5 mm relative to bregma; V: −6.0 mm (Paxinos and Watson, 1982). After insertion, probes were secured with dental cement.
Rats were allowed to recover for at least 24 h. Probes were perfused with artificial cerebrospinal fluid containing 147 mM NaCl, 3.0 mM KCl, 1.2 mM CaCl2, and 1.2 mM MgCl2, at a flow-rate of 1.5 μl/min (Harvard apparatus, South Natick, Mass., USA). 15 minute microdialysis samples were collected in HPLC vials containing 7.5 μl 0.02 M acetic acid for serotonin analysis.
Twenty-μl microdialysate samples were injected via an autoinjector (CMA/200 refrigerated microsampler, CMA, Sweden) onto a 100×2.0 mm C18 Hypersil 3 μm column (Bester, Amstelveen, the Netherlands) and separated with a mobile phase consisting of 5 g/L di-ammoniumsulfate, 500 mg/L EDTA, 50 mg/L heptane sulphonic acid, 4% methanol v/v, and 30 μI/L of triethylamine, pH 4.65 at a flow of 0.4 ml/min (Shimadzu LC-10 AD). 5-HT was detected amperometrically at a glassy carbon electrode at 500 mV vs Ag/AgCl (Antec Leyden, Leiden, The Netherlands). The detection limit was 0.5 fmol 5-HT per 20 μl sample (signal to noise ratio 3).
Four consecutive microdialysis samples with less then 20% variation were taken as control and set at 100%. Data are presented as percentages of control level (mean±S.E.M.) in time. Statistical analysis was performed using Sigmastat for Windows (SPSS, Jandel Corporation). Treatments were compared versus controls using two way analysis of variance (ANOVA) for repeated measurements, followed by Student Newman Keuls test. Level of significance level was set at p<0.05.

SMILES: C[C@@H](N)Cc1cnc[nH]1 [R-(alphe)-methylhistamine]
- effect on electrical evoked release of tritiated serotonin (cortex synaptosomes): inhibited

SMILES: S=C(NC1CCCCC1)N1CCC(c2cnc[nH]2)CC1 [thioperamide, Thioperamide]
- effect on 5-HT levels when compared to citalopram administration alone ([1]; co-administration of citalopram 10 μmol/kg with thioperamide 5 mg/kg s.c.): augmented effect
- effects on serotonin levels in ventral hippocampus ([1]; thioperamide alone, 5 mg/kg s.c., P=0.44 n.s.): did not induce any effects
- effect on the inhibition of evoked serotonin release by R-(alphe)-methylhistamine (cortex synaptosomes): reversed

SMILES: O=C(c1ccc(OCCCc2cnc[nH]2)cc1)C1CC1 [ciproxifan, Ciproxifan]
- effects on serotonin levels in ventral hippocampus ([1]; ciproxifan alone, 15 mg/kg s.c., P=0.54 n.s.): did not induce any effects
- effect on 5-HT levels when compared to citalopram administration alone ([1]; co-administration of citalopram 10 μmol/kg with ciproxifan 15 mg/kg s.c.): augmented effect
